B1: PttCesA8 (Populus tremula x Populus tremuloides) (protein)
chain: MMESGAPICHTCGEQVGHDANGDLFVACHECNYHICKSCFEYEIKEGRKVCLRCGSPYDENLLDDVEKKGSGNQSTMASHLNNSQDVGIHARHISSVSTVDSEMNDEYGNPIWKNRVESWKDKKNKKKKSNTKPETEPAQVPPEQQMENKPSAEASEPLSIVYPIPRNKLTPYRAVIIMRLIILGLFFHYRITNPVDSAFGLWLTSVICEIWFAFSWVLDQFPKWKPVNRETFIERLSARYEREGEPSQLAAVDFFVSTVDPLKEPPLITANTVLSILAVDYPVDKVSCYVSDDGAAMLTFESLVETAEFARKWVPFCKKFSIEPRAPEFYFSQKIDYLKDKVQPSFVKERRAMKRDYEEYKVRVNALVPKAQKTPDEGWTMQDGTPWPGNNTRDHPGMIQVFLGNTGARDIEGNELPRLVYVSREKRPGYQHHKKAGAENALVRVSAVLTNAPYILNLDCDHYVNNSKAVREAMCILMDPQVGRDVCYVQFPQRFDGIDRSDRYANRNIVFFDVNMKGLDGIQGPMYVGTGCVFNRQALYGYGPPSMPRLRKGKESSSCFSCCCPTKKKPAQDPAEVYRDAKREDLNAAIFNLTEIDNYDDYERSMLISQLSFEKTFGLSSVFIESTLMENGGVPESANSSTLIKEAIHVIGCGFEEKTEWGKEIGWIYGSVTEDILSGFKMHCRGWRSIYCMPVRPAFKGSAPINLSDRLHQVLRWALGSVEIFFSRHCPFWYGYGGGRLKWLQRLAYINTIVYPFTSLPLIAYCTIPAVCLLTGKFIIPTLSNLASMLFLGLFISIIVTAVLELRWSGVSIEDLWRNEQFWVIGGVSAHLFAVFQGFLKMLAGIDTNFTVTAKAADDTEFGELYMVKWTTLLIPPTTLLIINIVGVVAGFSDALNKGYEAWGPLFGKVFFAFWVILHLYPFLKGLMGRQNRTPTIVVLWSVLLASVFSLVWVKINPFVNKVDNTLAGETCISIDC

Key:
SeHas = biological target: T1, SeHas (Streptococcus dysgalactiae, UniProt O50201); test: UDP-Glo luminescence, product inhibition, exponential fit; format: biochemical
T1 sequence (O50201 1-417): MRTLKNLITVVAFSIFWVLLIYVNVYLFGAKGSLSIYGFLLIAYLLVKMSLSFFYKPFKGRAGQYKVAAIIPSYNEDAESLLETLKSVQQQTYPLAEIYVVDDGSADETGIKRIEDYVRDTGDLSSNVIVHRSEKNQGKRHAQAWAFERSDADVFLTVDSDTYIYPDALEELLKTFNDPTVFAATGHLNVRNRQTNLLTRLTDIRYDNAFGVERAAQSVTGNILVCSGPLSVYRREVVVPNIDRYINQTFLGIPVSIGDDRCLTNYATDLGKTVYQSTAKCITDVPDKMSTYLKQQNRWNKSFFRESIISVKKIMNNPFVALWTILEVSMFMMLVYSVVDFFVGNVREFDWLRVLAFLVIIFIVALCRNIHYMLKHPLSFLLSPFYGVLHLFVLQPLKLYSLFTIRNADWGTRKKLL

PttCesA8 = biological target: T2, PttCesA8 (Populus tremula x Populus tremuloides, UniProt Q6J8X0); test: as above; format: biochemical
T2 sequence (Q6J8X0 1-978): B1 chain

purified protein = substrate: O=c1ccn([C@@H]2O[C@H](CO[P@@](=O)(O)O[P@@](=O)(O)O[C@H]3O[C@H](CO)[C@@H](O)[C@H](O)[C@H]3O)[C@@H](O)[C@H]2O)c(=O)[nH]1; test: purified protein; details: 20 mM MnCl2, 37 °C, 30 min, proteoliposomes

Row | Molecule | Ki (SeHas) [µM] | Ki (PttCesA8) [µM] | Km (purified protein) [µM] | kcat (purified protein) [s⁻¹]
1 | O=c1ccn([C@@H]2O[C@H](COP(=O)(O)OP(=O)(O)O)[C@@H](O)[C@H]2O)c(=O)[nH]1 [UDP] | 24.4 | 10.1 | – | –
2 | B1 | – | – | 295.8 | 21.57
